The target in one experiment is AChE (Homo sapiens, UniProt P22303). The experiment in a line: biochemical. The class given is biochemical. As for the experimental part:
(§1) Each concentration was tested three times in parallel, and 96 empty plates were taken, and 20 µL of the test sample or positive drug (10% DMSO was added to the blank control), 40 µL of AChE or BuChE (0.2 U/mL) and 100 µL of DTNB (0.001 mol/L) were added in turn, mixed well and incubated in a constant temperature water bath at 37 °C for 15 min.

Another experiment deals with BuChE (Homo sapiens, UniProt P06276). The experiment in a line: biochemical. The class given is biochemical. As for the experimental part: as §1
For another experiment, the target named is MAO. In words: MAO inhibitory activity (Holts method, rat liver mitochondrial enzyme). Type of experiment: biochemical. As for the experimental part: (§2) Male SD rats were sacrificed by decapitation, operated on ice, their livers were removed, and the liver surface was washed with precooled phosphate buffer. The liver was cut into pieces, and after washing (using PBS), 20 mL of 0.3 M sucrose buffer was added for homogenization. After fully homogenized, it was balanced by a tray balance. Low–temperature differential centrifugation was performed, and the obtained SD rat liver mitochondrial concentrate was the experimental monoamine oxidase stock solution, and was stored in a −80 °C refrigerator.
(§3) Added 25 µL of enzyme dilution solution and 25 µL of test derivatives (control group plus rasagiline, blank group plus 10% DMSO) to 96–well plate, incubated at 37 °C for 1 h, then 120 µL of substrate was added, 80 µL of chromogenic solution was added, incubated at 37 °C for 30 min, and its absorbance measured at 490 nm. In addition, in order to exclude the influence of protein, a protein control group was established, only the enzyme dilution was added, and the rest were replaced with PBS, and the absorbance value was detected at a wavelength of 490 nm. The inhibition rate of each concentration was substituted into the calculation software GraphPad Prism 8 to calculate the IC50 value.

Another experiment deals with ICR male mice. The experiment in a line: Forced swimming test (FST). The class given is in vivo. To be noted: i.p., 30 mg/kg; for DID (%) percentage decrease in immobility duration: vs control. As for the experimental part:
Pharmacological experiments of antidepressant activity used FST in mice, fluoxetine hydrochloride was used as a positive control, and the vehicle solvent PFG–400 was used as a blank control. The experiment used ICR male mice (20 ± 2 g). Six benzothiazole–quinoline derivatives were dissolved in polyethylene glycol–400, and 30 min after administration (i.p., 30 mg/kg), the mice were each placed in a glass cylinder, recording the time of immobility. Duration of immobility outcomes is expressed as mean ± SEM. The t-test was used to make comparisons between groups.

Another experiment has as its target T1, MAO–B (Rattus norvegicus, UniProt P19643).
T1 construct: the obtained SD rat liver mitochondrial concentrate was the experimental monoamine oxidase stock solution; from tissue; host or cells: male SD rat liver mitochondria
T1 sequence (P19643 1-520): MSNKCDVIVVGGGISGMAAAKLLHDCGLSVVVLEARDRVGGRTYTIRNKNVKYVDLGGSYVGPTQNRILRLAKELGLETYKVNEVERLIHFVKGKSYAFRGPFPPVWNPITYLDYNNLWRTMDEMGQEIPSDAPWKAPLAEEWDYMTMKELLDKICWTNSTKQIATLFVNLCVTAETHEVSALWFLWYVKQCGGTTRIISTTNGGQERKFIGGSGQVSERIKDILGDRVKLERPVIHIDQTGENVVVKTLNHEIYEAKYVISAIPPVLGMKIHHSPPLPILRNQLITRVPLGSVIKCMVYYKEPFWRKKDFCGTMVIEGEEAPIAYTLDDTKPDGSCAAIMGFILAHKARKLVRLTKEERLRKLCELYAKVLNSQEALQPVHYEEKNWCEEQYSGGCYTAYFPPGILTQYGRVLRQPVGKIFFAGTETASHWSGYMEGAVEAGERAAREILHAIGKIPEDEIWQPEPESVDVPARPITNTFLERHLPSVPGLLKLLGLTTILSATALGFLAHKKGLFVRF
The experiment in a line: MAO–B inhibitory activity (enzyme pre-incubated with chlorgiline). The class given is biochemical. As for the experimental part: as §2, §3
The inhibition rate of each concentration was substituted into the calculation software GraphPad Prism 8 to calculate the IC50 value.

The record followed here is publication PMC9782539, “Synthesis, Characterization and Biological Evaluation of Benzothiazole–Isoquinoline Derivative” (Molecules, 2022).

For orientation: IC50 means the midpoint of a concentration-inhibition curve. A low value points to higher potency.

Chain of AChE (P22303 32-614): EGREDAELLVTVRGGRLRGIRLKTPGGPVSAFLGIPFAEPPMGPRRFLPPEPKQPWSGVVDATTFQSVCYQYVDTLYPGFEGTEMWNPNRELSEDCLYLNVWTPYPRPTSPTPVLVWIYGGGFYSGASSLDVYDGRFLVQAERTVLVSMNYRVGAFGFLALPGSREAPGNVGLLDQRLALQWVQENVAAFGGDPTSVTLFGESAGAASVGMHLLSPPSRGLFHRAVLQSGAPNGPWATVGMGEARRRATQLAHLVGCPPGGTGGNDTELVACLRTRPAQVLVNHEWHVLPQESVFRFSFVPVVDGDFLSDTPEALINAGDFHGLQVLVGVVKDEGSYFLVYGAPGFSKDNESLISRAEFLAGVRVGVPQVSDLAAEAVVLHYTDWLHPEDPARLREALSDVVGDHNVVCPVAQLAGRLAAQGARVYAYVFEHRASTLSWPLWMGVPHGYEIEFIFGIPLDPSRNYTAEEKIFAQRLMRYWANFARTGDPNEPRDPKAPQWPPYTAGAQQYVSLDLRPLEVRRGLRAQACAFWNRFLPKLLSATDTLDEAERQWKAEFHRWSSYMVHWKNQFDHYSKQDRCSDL
Chain of BuChE (P06276 29-602): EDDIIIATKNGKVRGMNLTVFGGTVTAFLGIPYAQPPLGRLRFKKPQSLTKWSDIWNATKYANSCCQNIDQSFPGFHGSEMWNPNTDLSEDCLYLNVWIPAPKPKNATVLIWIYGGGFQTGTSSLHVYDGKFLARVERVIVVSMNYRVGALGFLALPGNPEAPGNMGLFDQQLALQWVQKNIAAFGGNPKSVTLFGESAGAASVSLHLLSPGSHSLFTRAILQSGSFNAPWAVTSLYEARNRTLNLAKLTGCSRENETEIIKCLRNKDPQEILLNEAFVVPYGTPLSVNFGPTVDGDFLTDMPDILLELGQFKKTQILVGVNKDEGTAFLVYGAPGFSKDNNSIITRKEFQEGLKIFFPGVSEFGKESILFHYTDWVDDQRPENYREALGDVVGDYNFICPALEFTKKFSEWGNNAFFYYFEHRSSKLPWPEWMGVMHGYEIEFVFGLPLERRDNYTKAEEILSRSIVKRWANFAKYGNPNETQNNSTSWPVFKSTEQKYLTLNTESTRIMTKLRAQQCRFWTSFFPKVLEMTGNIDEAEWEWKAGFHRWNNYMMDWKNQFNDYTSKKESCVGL

For the compound `O=C(CN1CCc2ccccc2[C@H]1c1ccccc1)Nc1nc2c(Br)cc(Br)cc2s1` [Compound 4p, (R)–N–(4,6–dibromobenzo[d]thiazol–2–yl)–2–(1–phenyl–3,4–dihydroisoquinolin–2(1H)–yl)acetamide], on AChE, the IC50 is greater than 150 µM and the “Inhibition Rate (%) AChE” value is on record as 6.63%. Also, on BuChE, the IC50 was 27.1 ± 1.73 µM and the “Inhibition Rate (%) BuChE” value is listed as 43.84%. Moreover, on MAO, half-maximal inhibition (IC50) required 59.3 ± 3.22 µM and the “Inhibition Rate of MAO (%)” value is on record as 19.80%.

As for `O=C(CN1CCc2ccccc2[C@H]1c1ccccc1)Nc1nc2c(Cl)cc(Cl)cc2s1` [Compound 4o, (R)–N–(4,6–dichlorobenzo[d]thiazol–2–yl)–2–(1–phenyl–3,4–dihydroisoquinolin–2(1H)–yl)acetamide], on AChE, the 50% inhibitory concentration (IC50) was greater than 150 µM and the “Inhibition Rate (%) AChE” value turned out to be 3.87%. Moreover, on BuChE, the IC50 stood at 21.8 ± 2.85 µM and the “Inhibition Rate (%) BuChE” value is recorded as 52.16%. On MAO, the IC50 came to 67.8 ± 1.26 µM and the “Inhibition Rate of MAO (%)” value stood at 10.19%.

Turning to `COc1ccc2nc(NC(=O)CN3CCc4ccccc4[C@H]3c3ccccc3)sc2c1` [Compound 4l, (R)–N–(6–methoxybenzo[d]thiazol–2–yl)–2–(1–phenyl–3,4–dihydroisoquinolin–2(1H)–yl)acetamide], at AChE, the IC50 was greater than 150 µM and the “Inhibition Rate (%) AChE” value stood at 3.31%. For the same compound, on BuChE, the IC50 stood at 3.86 ± 0.82 µM and the “Inhibition Rate (%) BuChE” value was 41.92%. On MAO, the midpoint of inhibition, the IC50, lay at 76.3 ± 2.94 µM and the “Inhibition Rate of MAO (%)” value worked out at 11.34%.

`O=C(CN1CCc2ccccc2[C@H]1c1ccccc1)Nc1nc2c(Cl)cccc2s1` [Compound 4a, (R)–N–(4–chlorobenzo[d]thiazol–2–yl)–2–(1–phenyl–3,4–dihydroisoquinolin–2(1H)–yl)acetamide]: at AChE, the IC50 was greater than 150 µM and the “Inhibition Rate (%) AChE” value was found to be 6.08%. Further, at BuChE, the IC50 was greater than 150 µM and the “Inhibition Rate (%) BuChE” value was determined as 38.08%. Besides, on MAO, the IC50 is greater than 150 µM and the “Inhibition Rate of MAO (%)” value was determined as 14.93%.

`O=C(CN1CCc2ccccc2[C@H]1c1ccccc1)Nc1nc2ccc([N+](=O)[O-])cc2s1` [Compound 4n, (R)–N–(6–nitrobenzo[d]thiazol–2–yl)–2–(1–phenyl–3,4–dihydroisoquinolin–2(1H)–yl)acetamide]: at AChE, the IC50 was greater than 150 µM and the “Inhibition Rate (%) AChE” value is 2.76%. Besides, at BuChE, the half-inhibitory concentration (IC50) was 12.3 ± 3.76 µM and the “Inhibition Rate (%) BuChE” value worked out at 20.31%. For the same compound, at MAO, the IC50 was greater than 150 µM and the “Inhibition Rate of MAO (%)” value stood at 12.51%.

On to `COc1ccc2sc(NC(=O)CN3CCc4ccccc4[C@H]3c3ccccc3)nc2c1` [Compound 4k, (R)–N–(5–methoxybenzo[d]thiazol–2–yl)–2–(1–phenyl–3,4–dihydroisoquinolin–2(1H)–yl)acetamide], for which, on AChE, the IC50 is greater than 150 µM and the “Inhibition Rate (%) AChE” value is on record as 3.31%. Further, at BuChE, inhibition was half-maximal at 10.2 ± 2.91 µM (IC50) and the “Inhibition Rate (%) BuChE” value is 57.92%. At MAO, the IC50 came to 65.5 ± 3.51 µM and the “Inhibition Rate of MAO (%)” value turned out to be 17.75%.

With `O=C(CN1CCc2ccccc2[C@H]1c1ccccc1)Nc1nc2ccc(F)cc2s1` [Compound 4m, (R)–N–(6–fluorobenzo[d]thiazol–2–yl)–2–(1–phenyl–3,4–dihydroisoquinolin–2(1H)–yl)acetamide], at AChE, the IC50 was greater than 150 µM and the “Inhibition Rate (%) AChE” value is listed as 2.76%. Moreover, on BuChE, half-maximal inhibition (IC50) required 50.3 ± 1.68 µM and the “Inhibition Rate (%) BuChE” value came to 22.33%. At MAO, the IC50 is greater than 150 µM and the “Inhibition Rate of MAO (%)” value was determined as 9.76%.

Turning to `O=C(CN1CCc2ccccc2[C@H]1c1ccccc1)Nc1nc2cc(Br)ccc2s1` [Compound 4e, (R)–N–(5–bromobenzo[d]thiazol–2–yl)–2–(1–phenyl–3,4–dihydroisoquinolin–2(1H)–yl)acetamide], at AChE, the IC50 is greater than 150 µM and the “Inhibition Rate (%) AChE” value was 4.97%. Besides, at BuChE, the IC50 stood at 18.3 ± 2.68 µM and the “Inhibition Rate (%) BuChE” value is recorded as 68.80%. At MAO, the IC50 came out at 128.1 ± 1.27 µM and the “Inhibition Rate of MAO (%)” value is reported as 9.29%.

On to `CNCCC(Oc1ccc(C(F)(F)F)cc1)c1ccccc1` (stereo not shown) [Fluoxetine, reference compound], for which the “Duration of Immobility” value with ICR male mice (30 min after administration, mean ± SEM (n = 8)) turned out to be 31.7 ± 7.7 s. Besides, the “DID (%) percentage decrease in immobility duration” value with ICR male mice was 82.20%; with ICR male mice (listed as fluoxetine), 82.2%.

Take `COc1cccc2sc(NC(=O)CN3CCc4ccccc4[C@H]3c3ccccc3)nc12` [Compound 4j, (R)–N–(4–methoxybenzo[d]thiazol–2–yl)–2–(1–phenyl–3,4–dihydroisoquinolin–2(1H)–yl)acetamide]: at AChE, the IC50 was greater than 150 µM and the “Inhibition Rate (%) AChE” value amounted to 12.71%. In addition, at BuChE, the IC50 is greater than 150 µM and the “Inhibition Rate (%) BuChE” value is given as 51.52%. On MAO, the IC50 is greater than 150 µM and the “Inhibition Rate of MAO (%)” value is given as 5.70%.

Regarding `C#CCN(C)Cc1ccccc1` [Pargyline, reference compound], on MAO–B, the “Inhibition Rate (%) MAO–B” value is listed as 93.47%.

As to `Cc1ccc2sc(NC(=O)CN3CCc4ccccc4[C@H]3c3ccccc3)nc2c1` [Compound 4h, (R)–N–(5–methylbenzo[d]thiazol–2–yl)–2–(1–phenyl–3,4–dihydroisoquinolin–2(1H)–yl)acetamide], on AChE, the IC50 was greater than 150 µM and the “Inhibition Rate (%) AChE” value turned out to be 3.31%. For the same compound, on BuChE, the IC50 is 11.5 ± 3.22 µM and the “Inhibition Rate (%) BuChE” value is on record as 37.44%. On MAO, the IC50 worked out at 76.4 ± 2.58 µM and the “Inhibition Rate of MAO (%)” value was 16.72%.
